We go through 2 compounds from patent publication US7655643B2, “Antibacterial macrocycles with substituted biphenyl” (AiCuris GmbH & Co. KG, priority 2003, dated 2010).

Test [1] concerns the target S. aureus 133 Translation. Kind of test: S. aureus in vitro transcription-translation assay (firefly luciferase, S30 extract). It counts as biochemical. As to conditions: Table B. From the text: In order to construct a reporter plasmid which can be used in an in vitro transcription -translation assay from S. aureus the plasmid pBESTluc (Promega Corporation, USA) is used. The E. coli tac promoter present in this plasmid in front of the firefly luciferase is replaced by the capA1 promoter with appropriate Shine-Dalgarno sequence from S. aureus. The primers CAPFor 5′-[…] -[…]-3′ and CAPRev 5′-[…]-3′ are used for this. The primer CAPFor contains the capA1 promoter, the ribosome binding site and the 5′ region of the luciferase gene. After PCR using pBESTluc as template it is possible to isolate a PCR product which contains the firefly luciferase gene with the fused capA1 promoter. This is, after restriction with ClaI and HindIII, ligated into the vector pBESTluc which has likewise been digested with ClaI and HindIII. The resulting plasmid pla can be replicated in E. coli and be used as template in the S. aureus in vitro transcription-translation assay.
Six liters of BHI medium are inoculated with a 250 ml overnight culture of a S. aureus strain and allowed to grow at 37° C. until the OD600 nm is 2-4. The cells are harvested by centrifugation and washed in 500 ml of cold buffer A (10 mM Tris acetate, pH 8.0, 14 mM magnesium acetate, 1 mM DTT, 1 M KCl). After renewed centrifugation, the cells are washed in 250 ml of cold buffer A with 50 mM KCl, and the resulting pellets are frozen at −20° C. for 60 min. The pellets are thawed on ice in 30 to 60 min and taken up to a total volume of 99 ml in buffer B (10 mM Tris acetate, pH 8.0, 20 mM magnesium acetate, 1 mM DTT, 50 mM KCl). 1.5 ml lysostaphin (0.8 mg/ml) in buffer B are introduced into 3 precooled centrifuge cups each and each mixed with 33 ml of the cell suspension. The samples are incubated at 37° C., shaking occasionally, for 45 to 60 min, before 150 μl of a 0.5 M DTT solution are added. The lysed cells are centrifuged at 30 000×g and 4° C. for 30 min. The cell pellet is taken up in buffer B and then centrifuged again under the same conditions, and the collected supernatants are combined. The supernatants are centrifuged again under the same conditions, and 0.25 volumes of buffer C (670 mM Tris acetate, pH 8.0, 20 mM magnesium acetate, 7 mM Na3 phosphoenolpyruvate, 7 mM DTT, 5.5 mM ATP, 70 μM amino acids (complete from Promega), 75 μg of pyruvate kinase (Sigma, Germany)/ml are added to the upper ⅔ of the supernatant. The samples are incubated at 37° C. for 30 min. The supernatants are dialysed against 21 of dialysis buffer (10 mM Tris acetate, pH 8.0, 14 mM magnesium acetate, 1 mM DTT, 60 mM potassium acetate) in a dialysis tube with a 3500 Da cut-off with one buffer change at 4° C. overnight. The dialysate is concentrated to a protein concentration of about 10 mg/ml by covering the dialysis tube with cold PEG 8000 powder (Sigma, Germany) at 4° C. The S30 extracts can be stored in aliquots at −70° C.
Inhibition of protein biosynthesis of the compounds can be shown in an in vitro transcription-translation assay. The assay is based on the cell-free transcription and translation of firefly luciferase using the reporter plasmid pla as template and cell-free S30 extracts obtained from S. aureus. The activity of the resulting luciferase can be detected by luminescence measurement.
The amount of S30 extract or plasmid plato be employed must be tested anew for each preparation in order to ensure an optimal concentration in the assay. 3 μl of the substance to be tested, dissolved in 5% DMSO, are introduced into an MTP. Then 10 μl of a suitably concentrated plasmid solution p1 a are added. Then 46 μl of a mixture of 23 μl of premix (500 mM Potassium acetate, 87.5 mM Tris acetate, pH 8.0, 67.5 mM ammonium acetate, 5 mM DTT, 50 μg of folic acid/ml, 87.5 mg of PEG 8000/ml, 5 mM ATP, 1.25 mM each NTP, 20 μM each amino acid, 50 mM PEP (Na3 salt), 2.5 mM cAMP, 250 μg each E. coli tRNA/ml) and 23 μl of a suitable amount of S. aureus S30 extract are added and mixed. […]

A further test concerns S. aureus T17. Put plainly: MIC, alternative method, agar dilution test. The test is classed as cell-based. As to conditions: Staphylococcus aureus. Here is the method: (§1) The minimum inhibitory concentration (MIC) is the minimum concentration of an antibiotic with which the growth of a test microbe is inhibited over 18-24 h. The inhibitor concentration can be determined by standard microbiological methods using modified medium in an agar dilution test (see, for example, the National Committee for Clinical Laboratory Standards. Methods for dilution antimicrobial susceptibility tests for bacteria that grow aerobically; approved standard-fifth edition. NCCLS document M7-A5 [ISBN 1-56238-394-9]. NCCLS, 940 West Valley Road, Suite 1400, Wayne, PA. 19087-1898 USA, 2000). The bacterial microbes are cultivated on 1.5% agar plates containing 20% defibrinated horse blood. The test microbes, which are incubated on Columbia blood agar plates (Becton-Dickinson) overnight, are diluted in PBS, adjusted to a microbe count of about 5×10^5 microbes/ml and placed as drops (1-3 μl) on test plates. The test substances contain various dilutions of the test substances (1:2 dilution stages). The cultures are incubated at 37° C. in the presence of 5% CO2 for 18-24 hours.
(§2) The lowest concentration of each substance at which no visible bacterial growth occurs is defined as the MIC and is reported in μg/ml.
In general terms: Agar dilution tests growth on a series of plates holding different concentrations.

The next test concerns S. aureus 133. Put plainly: MIC, alternative method, agar dilution test. The test is classed as cell-based. The protocol:
as §1, §2

The subject of a further test is E. faecium L4001. Put plainly: MIC, alternative method, agar dilution test. The test is classed as cell-based, Enterococcus faecium. As to conditions: Enterococcus faecium. Here is the method: as §1, §2

The structures appear in SMILES notation. Converted amounts (≈) assume the structure as drawn. Structures can show the parent of a compound that is named as a salt. Where two headings read alike, the source gives them in different places.

For orientation: IC50 means the concentration needed to halve the response being measured. As a reminder, the MIC is the smallest concentration in the dilution series that meets the test's criterion for growth inhibition. In turn, `CN1C(=O)[C@H](CCCN)NC(=O)[C@@H](N)Cc2cc(ccc2O)-c2ccc(Cl)c(c2)C[C@H]1C(=O)NCCN(CCN)CCN` [Example 42, (8S,11S,14S)-14-Amino-11-(3-aminopropyl)-N-{2-[bis(2-aminoethyl)amino]ethyl}-5-chloro-17-hydroxy-9-methyl-10,13-dioxo-9,12-diazatricyclo[14.3.1.1^2,6]henicosa-1(20),2(21)3,5,16,18-hexaene-8-carboxamide penta(hydrotrifluoroacetate)] came in with an IC50 in test [1] of 80 nM. In addition, the MIC in the test with S. aureus T17 (T17, agar dilution, 1.5% agar with 20% defibrinated horse blood, 5% CO2, 18-24 h, read-out: MIC S. aureus T17) came to 2 µg/mL (≈ 3.24 µM); in the test with S. aureus 133 (Staphylococcus aureus, 133, agar dilution, 1.5% agar with 20% defibrinated horse blood, 5% CO2, 18-24 h, read-out: MIC S. aureus 133) it was 2 µg/mL (≈ 3.24 µM); in the test with E. faecium L4001 (L4001, agar dilution, 1.5% agar with 20% defibrinated horse blood, 5% CO2, 18-24 h, read-out: MIC E. faecium L4001), 32 µg/mL (≈ 51.8 µM).
`NCCC[C@@H]1NC(=O)[C@@H](N)Cc2cc(ccc2O)-c2ccc(N)c(c2)C[C@@H](C(=O)NCCN)NC1=O` [Example 43, (8S,11S,14S)-5,14-Diamino-N-(2-aminoethyl)-11-(3-aminopropyl)-17-hydroxy-10,13-dioxo-9,12-diazatricyclo[14.3.1.1^2,6]henicosa-1(20),2(21),3,5,16,18-hexaene-8-carboxamide tetrahydrochloride]: half-maximal inhibition in test [1] (IC50) was put at 900 nM. The minimal inhibitory concentration (MIC) with S. aureus T17 (T17, read-out: MIC S. aureus T17) is 4 µg/mL; in the test with S. aureus 133 (Staphylococcus aureus, 133, read-out: MIC S. aureus 133) it was 2 µg/mL; with E. faecium L4001 (L4001, read-out: MIC E. faecium L4001), over 32 µg/mL.
